The values that follow come from PubChem BioAssay (NCI).

Test systems include M14 melanoma; UACC-257 melanoma; NCI-H226 lung; OVCAR-4 ovarian; HL-60(TB) leukemia; MDA-MB-231 breast; HOP-92 NSCLC; DU-145 prostate; MDA-MB-435; SK-MEL-5 melanoma.
Holding throughout (assay): NCI-60 cell line screen, 48 h

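Step 1: Grow cells in 96-well plates. Step 2: Expose to compound for 48 hours at 5 concentrations. Step 3: Interpolate endpoints linearly; if unreached, use highest concentration. GI50 is the concentration that inhibits growth by half. TGI: concentration producing complete growth inhibition.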

For `COc1ccc(C(C)NNC(=O)c2ccncc2)cc1OC` (stereo not given), the TGI in the assay with M14 melanoma, with UACC-257 melanoma, with NCI-H226 lung, in the assay on OVCAR-4 ovarian, in the assay on HL-60(TB) leukemia and in the assay with MDA-MB-231 breast was over 100 µM throughout. Besides, the TGI in the assay on HOP-92 NSCLC, in the assay with DU-145 prostate, with MDA-MB-435 and with SK-MEL-5 melanoma was over 100 µM in each case.

As to `CCOC(=O)c1cn2c(n1)sc1cc(F)ccc12`, the TGI in the assay on M14 melanoma, in the assay with UACC-257 melanoma, in the assay on NCI-H226 lung, with OVCAR-4 ovarian, with MDA-MB-231 breast and in the assay on HOP-92 NSCLC was over 100 µM each time. Besides, the TGI in the assay on DU-145 prostate, in the assay with MDA-MB-435 and with SK-MEL-5 melanoma was over 100 µM in each case.

For the molecule `Cc1nn(C(=O)Cc2ccccc2)c2c1C(c1ccccc1)SC(N)=N2` (stereo not given), the TGI in the assay on M14 melanoma, in the assay on UACC-257 melanoma, in the assay with NCI-H226 lung, with HL-60(TB) leukemia, in the assay with MDA-MB-231 breast and in the assay with DU-145 prostate was over 100 µM in each case. The TGI in the assay with MDA-MB-435 and with SK-MEL-5 melanoma was over 100 µM each time.

Consider `O=[N+]([O-])c1ccc2nc(Nc3ccccc3)c(Nc3ccccc3)nc2c1`, for which the TGI stood at 5.1 µM in the assay with UACC-257 melanoma; 5.1 µM in the assay with NCI-H226 lung; 11.3 µM in the assay on OVCAR-4 ovarian; 40.4 µM in the assay with HL-60(TB) leukemia; 2.64 µM with MDA-MB-231 breast; 4.88 µM in the assay on HOP-92 NSCLC. In addition, the TGI came to 4.6 µM in the assay with DU-145 prostate, 4.4 µM in the assay on MDA-MB-435 and 2.82 µM with SK-MEL-5 melanoma.

For `CC(C)C(NC(=O)Oc1ccccc1)C(=O)NC1c2c(Br)sc(Br)c2C(=O)C1O` (stereo not given), the TGI in the assay with M14 melanoma is 11.4 µM; in the assay with UACC-257 melanoma, 8.66 µM; with NCI-H226 lung, over 25 µM; in the assay with OVCAR-4 ovarian, 6.41 µM; with HL-60(TB) leukemia, over 25 µM; with MDA-MB-231 breast, 9.41 µM. Besides, the TGI in the assay with DU-145 prostate is over 25 µM; with MDA-MB-435 it was 13.1 µM; with SK-MEL-5 melanoma it was 8.36 µM.

Turning to `COc1ccc(S(=O)(=O)n2c3c(c4ccccc42)[C@@H]2[C@@H](CCCN2C(=O)CS(=O)c2ccc(C)cc2)[C@H](Cl)C3)cc1` (stereo not given in full), the TGI in the assay on M14 melanoma, in the assay on UACC-257 melanoma, with NCI-H226 lung, in the assay with HL-60(TB) leukemia, in the assay with MDA-MB-231 breast and in the assay with HOP-92 NSCLC was over 100 µM in each case. In addition, the TGI in the assay on DU-145 prostate, in the assay with MDA-MB-435 and with SK-MEL-5 melanoma was over 100 µM throughout.

On to `COC(=O)c1ccc(Cc2cc(Cc3ccc(C(=O)OC)cc3)cc(Cc3ccc(C(=O)OC)cc3)c2)cc1`, for which the TGI with M14 melanoma, with UACC-257 melanoma, with NCI-H226 lung, with OVCAR-4 ovarian, with HL-60(TB) leukemia and in the assay on MDA-MB-231 breast was over 25 µM throughout. For the same molecule, the TGI with HOP-92 NSCLC, with DU-145 prostate and in the assay on MDA-MB-435 was over 25 µM throughout.

Regarding `Cc1ccc(S(=O)(=O)N2CC2CCCCC=O)cc1` (stereo not given), the TGI in the assay with M14 melanoma, in the assay on UACC-257 melanoma, in the assay on NCI-H226 lung, in the assay with OVCAR-4 ovarian, in the assay with MDA-MB-231 breast and in the assay on HOP-92 NSCLC was over 100 µM throughout. Also, the TGI in the assay with DU-145 prostate, in the assay with MDA-MB-435 and in the assay on SK-MEL-5 melanoma was over 100 µM in each case.

For the molecule `COc1cc(OCCN(C)C)c2[nH]c(C(=O)N3CC(CCl)c4ccc(N)cc43)cc2c1` (stereo not given), the TGI with M14 melanoma came out at 1.13 µM; in the assay on UACC-257 melanoma it was 0.329 µM; in the assay on NCI-H226 lung, 2.58 µM; with OVCAR-4 ovarian it was 1.32 µM; in the assay with MDA-MB-231 breast, 9.37 µM; in the assay with HOP-92 NSCLC, 0.617 µM. In addition, the TGI is 1.02 µM with DU-145 prostate, 0.281 µM in the assay on MDA-MB-435 and 0.197 µM in the assay with SK-MEL-5 melanoma.

Turning to `O=c1[nH]c(=O)n(C2COC(CO)C2O)cc1F` (stereo not given), the TGI in the assay on M14 melanoma, with UACC-257 melanoma, in the assay with NCI-H226 lung, with OVCAR-4 ovarian, in the assay with MDA-MB-231 breast and in the assay on HOP-92 NSCLC was over 100 µM each time. Further, the TGI in the assay with DU-145 prostate, in the assay on MDA-MB-435 and with SK-MEL-5 melanoma was over 100 µM throughout.

As to `CCOC(=O)C12OC(OCC)(CC1(OCC)OCC)C1(CC1)C2=O` (stereo not given), the TGI with M14 melanoma, with UACC-257 melanoma, in the assay on NCI-H226 lung, with OVCAR-4 ovarian, with MDA-MB-231 breast and with HOP-92 NSCLC was over 100 µM each time. Also, the TGI with DU-145 prostate, with MDA-MB-435 and with SK-MEL-5 melanoma was over 100 µM in each case.

As to `C[N+]12C=CC=C1C(N1CCCC1)c1scc(-c3ccc(Br)cc3)c12` (stereo not given), the TGI in the assay with M14 melanoma is over 66.4 µM; in the assay on UACC-257 melanoma, over 51.9 µM; in the assay on NCI-H226 lung it was over 100 µM; with OVCAR-4 ovarian it was over 100 µM; in the assay on MDA-MB-231 breast, over 93.8 µM; in the assay on HOP-92 NSCLC it was 42.1 µM. For the same molecule, the TGI was over 100 µM with DU-145 prostate, 76.9 µM with MDA-MB-435 and 16.1 µM in the assay on SK-MEL-5 melanoma.

As for `O=C(O)Cc1ccc([N+](=O)[O-])cc1[N+](=O)[O-]`, the TGI with M14 melanoma, in the assay with UACC-257 melanoma, with NCI-H226 lung, in the assay with OVCAR-4 ovarian, in the assay on HL-60(TB) leukemia and in the assay on MDA-MB-231 breast was over 100 µM throughout. Moreover, the TGI in the assay with DU-145 prostate, in the assay on MDA-MB-435 and in the assay on SK-MEL-5 melanoma was over 100 µM in each case.

As for `COc1cc(/C=C2\CN(S(=O)(=O)c3ccc(C)cc3)C/C(=C\c3cc(CN4CCCC4)c(O)c(OC)c3)C2=O)cc(CN2CCCC2)c1O`, the GI50 in the assay on M14 melanoma is 1.55 µM; in the assay on UACC-257 melanoma, 1.53 µM; in the assay on NCI-H226 lung, 1.63 µM; with OVCAR-4 ovarian, 1.34 µM; in the assay on MDA-MB-231 breast, 1.8 µM; with HOP-92 NSCLC it was 1.15 µM. Besides, the results for the GI50 with DU-145 prostate, with MDA-MB-435 and with SK-MEL-5 melanoma were 0.926 µM, 1.53 µM and 1.61 µM, respectively. The TGI in the assay on M14 melanoma came to 3.17 µM; with UACC-257 melanoma, 3.17 µM; in the assay with NCI-H226 lung it was 3.16 µM; in the assay on OVCAR-4 ovarian it was 2.69 µM; in the assay on MDA-MB-231 breast, 3.53 µM; in the assay on HOP-92 NSCLC it was 3.83 µM. Besides, the TGI with DU-145 prostate worked out at 2.15 µM; in the assay with MDA-MB-435, 2.97 µM; in the assay on SK-MEL-5 melanoma, 2.97 µM.
